Tests used:
[1] = tested on: Hyperthermia caused by Brewer's yeast; experiment: Antipyretic effect (Brewer's yeast hyperthermia); type: in vivo, Male Wister rats; parameters: key: rectal body temperature in °C; conditions: in °C (unit assumed)
Method: Male Wister rats (weighting 130-150 g.), one group being 5 rats, were used. Hyperthermia was caused by subcutaneous injection of 2 ml./rat of 20% Brewer's yeast suspension. 18 hours later, the rats showing a rise in temperature exceeding 1° C. were selected and allocated into groups each consisting of 5 rats. The sample was orally administered and then the body temperature was measured with the passage of time for 6 hours since then. In addition, the body temperature was measured by measuring the temperature in the rectum by means of a thermister thermometer.
(§1) In addition, the test samples used in the aforesaid tests (a), (b), (c) and (d) were prepared by suspending the test compounds, in the cases of using the compounds of Test Nos. 1-12 and phenylbutazone, in an aqueous 0.5% methyl cellulose solution, dissolving the test compounds, in the cases of using aminopyrine, in distilled water.

[2] = tested on: acetic acid-induced writhings; experiment: Whittle's method: acetic acid-induced writhings; type: in vivo, Male ICR-Mice
Method: (§2) Male ICR-Mice (weighting 25-35 g.), one group being 12 mice, fasted overnight were used in this test. The sample was orally administered, and 20 minutes after, 5 ml./Kg. of 0.4% Evance blue was injected intravenously and further 10 minutes after, 10 ml./Kg. of 0.6% acetic acid was injected intraperitoneally. The number of writhings after 20 minutes since the administration of acetic acid was recorded and further 10 minutes after since then, the mice were killed by dislocation of the neck, the dye leaked in the abdominal cavity was washed out with 5 ml. of 0.9% saline to make the total amount 10 ml., and thereafter furs, blood corpuscles, etc., intermingled were removed by centrifugal separation at 3,000 r.p.m. for 5 minutes. Furthermore, for preventing turbidity caused by protein, 0.1 ml. of an aqueous 0.1 normal sodium hydroxide was added and then the absorbance at 590 nm was measured. The inhibition ratio of the sample administered rat groups to control groups was calculated.
as §1

[3] = tested on: Permeability (dye leakage into abdominal cavity); experiment: Whittle's method: permeability (dye leaked in the abdominal cavity); type: in vivo, Male ICR-Mice
Method: as §2, §1

[4] = tested on: Carrageenin-induced edema; experiment: Carrageenin-induced edema (Winter's method); type: in vivo, Male Wister rats; conditions: oral, one hour before carrageenin, edema 3 hours after injection
Method: Male Wister rats (weighting 130-170 g.), one group being 6 rats, fasted overnight were used. According to Winter's method [Proc. Soc. […] After 3 hours, each rat was sacrificed by chloroform and the hind paw was cut and weighed immediately. By using the value obtained by subtracting the weight of the untreated hind paw from the weight of the hind paw having injected thereto the carrageenin as the weight of edema, the inhibitory ratio of the sample administered rat groups to control groups was calculated. The sample was orally administered before one hour of the injection of carrageenin.
as §1

Acute toxicity = type: in vivo, Male Wister rats; conditions: 500 mg/kg oral, observed 7 days; deaths/animals
Method: Male Wister rats (weighting 130-170 g.), one group being 5 rats, fasted overnight were used in this test.
as §1

[5] = 1 hour, 50mg/kg P.O., * significantly different from before administration (P<0.05)
[6] = 2 hours, 50mg/kg P.O., * significantly different from before administration (P<0.05)
[7] = 4 hours, 50mg/kg P.O., * significantly different from before administration (P<0.05)
[8] = 6 hours, 50mg/kg P.O., * significantly different from before administration (P<0.05)
[9] = before administration, group dosed 50mg/kg P.O.

| Molecule | Inhibition, Writhings ([2]; 50mg/kg P.O.) [%] | Inhibition, Permeability ([3]; 50mg/kg P.O.) [%] | Inhibition (carrageenin-induced edema) ([4]; 25 mg/kg) [%] | Inhibition (carrageenin-induced edema) ([4]; 50 mg/kg) [%] | further results |
| --- | --- | --- | --- | --- | --- |
| Cc1c(N(C)C)c(=O)n(-c2ccccc2)n1C [Aminopyrine, reference compound] | 58.1 | 41.7 | – | – | Rectal temperature (mean±SE) [1, 5]: 37.92±0.09; Rectal temperature (mean±SE) [1, 6]: 37.49±0.10; Rectal temperature (mean±SE) [1, 7]: 37.39±0.07; Rectal temperature (mean±SE) [1, 8]: 37.76±0.19; Rectal temperature (mean±SE) [1, 9]: 39.24±0.14; Inhibition, Writhings ([2]; 25mg/kg P.O.): 29.6%; Inhibition, Permeability ([3]; 25mg/kg P.O.): 28.5% |
| 6-oxo-3,4-dihydro-2H,6H-1,3-thiazino[3,2-b]isoquinoline [Example 3] | 67.5 | 37.0 | 47.0 | 74.0 | – |
| 3-methyl-5-oxo-2,3-dihydro-5H-thiazolo[3,2-b]isoquinoline [Example 1] | 57.8 | 21.3 | – | – | Inhibition, Writhings ([2]; 25mg/kg P.O.): 24.8%; Inhibition, Permeability ([3]; 25mg/kg P.O.): 26.2% |
| CC1CSc2cc3ccccc3c(=O)n21 (stereo not drawn) [Test No. 3] | – | – | – | – | Number of death (Acute toxicity): 3/5 |
| CCCCC1C(=O)N(c2ccccc2)N(c2ccccc2)C1=O [Phenylbutazone, reference compound] | – | – | 29.4 | 44.5 | – |
| 5-oxo-5H-thiazolo[3,2-b]isoquinoline [Example 10] | 91.6 | 32.4 | 58.0 | – | – |
| 6-oxo-3,4-dihydro-2H,6H-1,3-thiazino[3,2-b]isoquinoline-1-oxide [Example 6] | 28.8 | 37.1 | 57.1 | – | – |
| O=c1c2ccccc2cc2n1CCCS2(=O)=O [Test No. 2] | – | – | – | – | Rectal temperature (mean±SE) [1, 5]: 39.04±0.23; Rectal temperature (mean±SE) [1, 6]: 38.41±0.21; Rectal temperature (mean±SE) [1, 7]: 37.32±0.31; Rectal temperature (mean±SE) [1, 8]: 37.55±0.33; Rectal temperature (mean±SE) [1, 9]: 38.94±0.14 |
| 2-acetoxy-5-oxo-2,3-dihydro-5H-thiazolo[3,2-b]isoquinoline [Example 9] | 82.9 | – | 53.4 | – | – |
| O=c1c2ccccc2cc2n1CCCS2 [Test No. 1] | – | – | 54.8 | 69.8 | Rectal temperature (mean±SE) [1, 5]: 38.72±0.13; Rectal temperature (mean±SE) [1, 6]: 38.20±0.15; Rectal temperature (mean±SE) [1, 7]: 37.39±0.23; Rectal temperature (mean±SE) [1, 8]: 37.44±0.32; Rectal temperature (mean±SE) [1, 9]: 39.26±0.19 |
| 5-oxo-5H-thiazolo[3,2-b]isoquinoline-1,1-dioxide [Example 5] | – | 36.0 | 55.3 | 67.2 | Inhibition, Permeability ([3]; 25mg/kg P.O.): 22.6% |
| O=Cc1c2n(c(=O)c3ccccc13)CCCS2 [Test No. 11] | – | – | 45.9 | – | – |
| O=c1c2ccccc2cc2n1CC[S+]2[O-] (stereo not drawn) [Example 4, 5-oxo-2,3-dihydro-5H-thiazolo[3,2-b]isoquinoline-1-oxide] | 39.7 | 41.1 | 41.2 | 65.1 | Inhibition, Writhings ([2]; 25mg/kg P.O.): 29.1%; Inhibition, Permeability ([3]; 25mg/kg P.O.): 22.1% |
| 6-oxo-3,4-dihydro-2H,6H-1,3-thiazino[3,2-b]isoquinoline-1,1-dioxide [Example 7] | 69.5 | 38.6 | 57.0 | – | – |
| O=c1c2ccccc2cc2n1CCC[S+]2[O-] (stereo not drawn) [Test No. 5] | – | – | – | – | Number of death (Acute toxicity): 3/5 |
| 5-oxo-2,3-dihydro-5H-thiazolo[3,2-b]isoquinoline-1,1-dioxide [Example 8] | – | 23.5 | 57.5 | – | – |
| 6-oxo-2,3-dihydro-2H,6H-1,3-oxazino[3,2-b]isoquinoline [Example 2] | 14.4 | 20.1 | 41.7 | 71.2 | Inhibition, Writhings ([2]; 25mg/kg P.O.): 22.6%; Inhibition, Permeability ([3]; 25mg/kg P.O.): 4.7% |

— patent US4163844A, “Nitrogen-containing heterocyclic compounds” (Yamanouchi Pharmaceutical Co., Ltd., priority 1976, dated 1979)
